Values belong to the compound of their own block, whether it stands above or below them. Calls of active or inactive are those of the source.
Legend:
Mu-type opioid receptor [1] = biological target: T1, Mu-type opioid receptor (Homo sapiens, UniProt P35372); assay: mu opioid receptor activators, image-based, SAR follow-up (AID 2352); type: functional
Mu-type opioid receptor [2] = biological target: T1, Mu-type opioid receptor; assay: mu opioid receptor blockers – image-based, SAR follow-up (AID 2420); type: functional;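 note: compounds added before stimulation of receptor with agonist DAMGO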
[3] = biological target: T2, Delta-type opioid receptor (Homo sapiens, UniProt P41143); assay: delta opioid receptor blockers – image-based, SAR follow-up (AID 2357); type: functional
T2 sequence (P41143 whole entry): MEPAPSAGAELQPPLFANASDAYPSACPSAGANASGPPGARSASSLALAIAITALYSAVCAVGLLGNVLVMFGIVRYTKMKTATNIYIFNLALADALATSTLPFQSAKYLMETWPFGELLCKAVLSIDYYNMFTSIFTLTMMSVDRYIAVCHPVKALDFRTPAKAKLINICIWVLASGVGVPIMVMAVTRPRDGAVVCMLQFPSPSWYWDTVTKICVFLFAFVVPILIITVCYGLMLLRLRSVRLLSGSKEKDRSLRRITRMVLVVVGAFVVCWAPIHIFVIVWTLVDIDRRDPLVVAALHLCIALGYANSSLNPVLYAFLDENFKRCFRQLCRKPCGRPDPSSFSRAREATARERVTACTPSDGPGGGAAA

[4] = biological target: T3, Kappa-type opioid receptor (Homo sapiens, UniProt P41145); assay: kappa opioid receptor blockers, image-based, SAR follow-up (AID 2348); type: functional
T3 sequence (P41145 whole entry): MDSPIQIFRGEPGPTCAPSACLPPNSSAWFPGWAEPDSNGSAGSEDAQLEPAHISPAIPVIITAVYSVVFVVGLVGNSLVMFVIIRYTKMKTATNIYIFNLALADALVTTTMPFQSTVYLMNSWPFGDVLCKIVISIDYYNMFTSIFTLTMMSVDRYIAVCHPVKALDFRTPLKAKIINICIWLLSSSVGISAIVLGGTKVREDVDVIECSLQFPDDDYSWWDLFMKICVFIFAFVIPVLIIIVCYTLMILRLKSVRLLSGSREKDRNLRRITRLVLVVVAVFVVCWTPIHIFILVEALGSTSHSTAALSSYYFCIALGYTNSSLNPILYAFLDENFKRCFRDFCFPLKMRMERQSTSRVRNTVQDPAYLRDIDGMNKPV

[5] = biological target: T2, Delta-type opioid receptor; assay: DOR agonists, SAR follow-up, image-based (AID 2370); type: functional
[6] = biological target: T3, Kappa-type opioid receptor; assay: kappa opioid receptor activation potency – imaging, image-based, SAR follow-up (AID 2359); type: functional
[7] = biological target: T3, Kappa-type opioid receptor; assay: kappa opioid receptor blockers, cell-based, luminescence, beta-arrestin, SAR follow-up (AID 2285); type: functional
HEK293 [8] = assay: SAR Analysis of small molecule inhibitors of B-cell specific antigen receptor-induced NF-kB activation in a HEK-293T cell line using a luminescence assay - Set 2. [Related pubchem assays (depositor defined):AID435022, AID435025, AID489021]; type: functional, cell-based; conditions: Homo sapiens
Jurkat = assay: SAR Analysis of small molecule inhibitors of […] specific antigen receptor-induced NF-kB activation in a Jurkat cell line using a luminescence assay - Set 3. [Related pubchem assays (depositor defined):AID435022, AID435025, AID465]; type: functional, cell-based; conditions: Homo sapiens
HEK293 [9] = assay: HEK293T cell viability loss, resazurin readout – resazurin fluorescence, cytotoxicity control for NF-kB activator project, SAR follow-up (AID 493251); type: functional, cell-based; conditions: Homo sapiens
Prothrombin = Prothrombin (Bos taurus, UniProt P00735); assay: thrombin protease inhibitors – biochemical, fluorescence polarization, uHTS hits, dose response (AID 602369); type: functional
[10] = biological target: 72 kDa type IV collagenase (Homo sapiens, UniProt P08253); assay: Dose Response validation of uHTS RPN11 inhibitor hits using a MMP-2 Fluorescence assay.; type: functional
Sequence of 72 kDa type IV collagenase (P08253 whole entry): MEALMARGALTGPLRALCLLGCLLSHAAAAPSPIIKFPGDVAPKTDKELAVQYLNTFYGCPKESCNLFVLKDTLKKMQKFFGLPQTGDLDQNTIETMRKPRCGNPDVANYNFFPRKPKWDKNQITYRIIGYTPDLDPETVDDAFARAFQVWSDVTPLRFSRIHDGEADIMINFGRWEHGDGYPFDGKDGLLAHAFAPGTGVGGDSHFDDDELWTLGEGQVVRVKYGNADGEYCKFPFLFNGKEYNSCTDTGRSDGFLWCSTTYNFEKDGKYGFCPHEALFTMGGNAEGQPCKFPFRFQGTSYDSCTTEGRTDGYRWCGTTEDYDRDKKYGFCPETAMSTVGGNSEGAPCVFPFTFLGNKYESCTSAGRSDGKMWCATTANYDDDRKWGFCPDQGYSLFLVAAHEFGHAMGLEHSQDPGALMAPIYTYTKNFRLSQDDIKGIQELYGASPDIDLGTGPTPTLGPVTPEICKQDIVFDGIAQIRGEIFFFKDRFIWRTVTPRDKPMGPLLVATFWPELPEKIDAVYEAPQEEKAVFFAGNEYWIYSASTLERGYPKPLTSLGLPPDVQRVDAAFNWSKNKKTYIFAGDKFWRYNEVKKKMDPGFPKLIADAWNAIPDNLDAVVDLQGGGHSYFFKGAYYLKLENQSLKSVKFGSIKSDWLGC

[11] = biological target: 26S proteasome non-ATPase regulatory subunit 14 (Homo sapiens, UniProt O00487); assay: inhibition of proteasome subunit RPN11 – biochemical, fluorescence polarization, uHTS hits, confirmation (AID 602368); type: functional
Sequence of 26S proteasome non-ATPase regulatory subunit 14 (O00487 whole entry): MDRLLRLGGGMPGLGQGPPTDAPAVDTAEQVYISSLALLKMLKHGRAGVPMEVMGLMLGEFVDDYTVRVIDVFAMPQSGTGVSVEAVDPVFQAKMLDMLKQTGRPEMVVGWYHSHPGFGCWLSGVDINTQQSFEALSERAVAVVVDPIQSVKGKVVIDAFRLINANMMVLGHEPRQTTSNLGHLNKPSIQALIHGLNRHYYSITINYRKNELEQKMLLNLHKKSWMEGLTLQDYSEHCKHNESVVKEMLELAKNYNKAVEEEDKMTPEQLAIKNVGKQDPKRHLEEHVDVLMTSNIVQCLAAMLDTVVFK

Streptococcus = assay: GAS UMAA2166 growth inhibition – luminescence, BacTiterGlo, counter-screen for streptokinase expression inhibitor project, dose response (AID 1915); type: functional, organism-based;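 note: potency for reduction of bacterial viability or growth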
[12] = tested on: Streptococcus sp. 'group A'; assay: Streptococcus pyogenes SK(-)GAS viability under kanamycin – luminescence, BacTiterGlo, confirmation, counter-screen for streptokinase expression inhibitor project, dose response (AID 1900); type: functional, organism-based
ORF 73 = ORF 73 (Human herpesvirus 8, UniProt O40947); assay: KSHV LANA DNA-binding disruption – biochemical, fluorescence polarization, cherry-picked samples, dose response (AID 504725); set-up: species or system Human gammaherpesvirus 8;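 note: fluorescence polarization of a labeled DNA duplex reporting LANA DNA binding; potency is for inhibitors that block LANA binding to the DNA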
Sequence of ORF 73 (O40947 whole entry): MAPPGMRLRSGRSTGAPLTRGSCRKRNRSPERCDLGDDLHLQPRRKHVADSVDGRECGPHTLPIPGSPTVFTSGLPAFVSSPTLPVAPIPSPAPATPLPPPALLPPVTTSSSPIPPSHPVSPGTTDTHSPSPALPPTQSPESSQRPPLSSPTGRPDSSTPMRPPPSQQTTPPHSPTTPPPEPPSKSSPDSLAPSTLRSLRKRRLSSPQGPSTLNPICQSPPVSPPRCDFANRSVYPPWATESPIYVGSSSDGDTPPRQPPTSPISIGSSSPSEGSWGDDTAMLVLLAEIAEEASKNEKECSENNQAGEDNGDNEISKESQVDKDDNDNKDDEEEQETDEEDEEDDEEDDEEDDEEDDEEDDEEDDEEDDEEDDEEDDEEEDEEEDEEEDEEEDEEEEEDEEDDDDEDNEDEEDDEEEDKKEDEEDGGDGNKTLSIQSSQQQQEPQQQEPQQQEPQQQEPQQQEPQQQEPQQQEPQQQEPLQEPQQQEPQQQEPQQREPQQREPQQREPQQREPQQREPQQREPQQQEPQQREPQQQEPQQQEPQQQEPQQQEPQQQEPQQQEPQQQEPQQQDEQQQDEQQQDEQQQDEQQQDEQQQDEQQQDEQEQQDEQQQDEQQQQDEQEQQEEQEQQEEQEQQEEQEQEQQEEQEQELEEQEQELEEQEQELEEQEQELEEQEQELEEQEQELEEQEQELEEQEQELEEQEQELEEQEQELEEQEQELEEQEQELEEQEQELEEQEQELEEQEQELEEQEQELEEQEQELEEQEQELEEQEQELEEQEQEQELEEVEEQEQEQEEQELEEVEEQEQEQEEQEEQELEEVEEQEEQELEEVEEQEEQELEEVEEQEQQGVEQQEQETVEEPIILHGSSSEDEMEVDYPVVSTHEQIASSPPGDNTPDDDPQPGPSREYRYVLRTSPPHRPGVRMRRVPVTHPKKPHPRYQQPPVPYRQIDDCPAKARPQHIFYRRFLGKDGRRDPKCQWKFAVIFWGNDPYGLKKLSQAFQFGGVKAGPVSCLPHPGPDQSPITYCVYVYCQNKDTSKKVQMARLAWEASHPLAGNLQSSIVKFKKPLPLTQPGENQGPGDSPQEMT

[13] = biological target: T4, Probable nicotinate-nucleotide adenylyltransferase (Staphylococcus aureus (strain N315), UniProt P65502); type: functional, Staphylococcus aureus subsp. aureus N315;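 for IC50 Mean: confirmatory dose-response retesting of NadD inhibitor hits first found in an ultra-high-throughput screen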
[14] = biological target: T5, Apoptotic protease-activating factor 1 (Homo sapiens, UniProt O14727); assay: activation of Apaf-1 mediated apoptosis – fluorescent, uHTS hits, dose response (AID 588554); type: functional
T5 sequence (O14727 whole entry): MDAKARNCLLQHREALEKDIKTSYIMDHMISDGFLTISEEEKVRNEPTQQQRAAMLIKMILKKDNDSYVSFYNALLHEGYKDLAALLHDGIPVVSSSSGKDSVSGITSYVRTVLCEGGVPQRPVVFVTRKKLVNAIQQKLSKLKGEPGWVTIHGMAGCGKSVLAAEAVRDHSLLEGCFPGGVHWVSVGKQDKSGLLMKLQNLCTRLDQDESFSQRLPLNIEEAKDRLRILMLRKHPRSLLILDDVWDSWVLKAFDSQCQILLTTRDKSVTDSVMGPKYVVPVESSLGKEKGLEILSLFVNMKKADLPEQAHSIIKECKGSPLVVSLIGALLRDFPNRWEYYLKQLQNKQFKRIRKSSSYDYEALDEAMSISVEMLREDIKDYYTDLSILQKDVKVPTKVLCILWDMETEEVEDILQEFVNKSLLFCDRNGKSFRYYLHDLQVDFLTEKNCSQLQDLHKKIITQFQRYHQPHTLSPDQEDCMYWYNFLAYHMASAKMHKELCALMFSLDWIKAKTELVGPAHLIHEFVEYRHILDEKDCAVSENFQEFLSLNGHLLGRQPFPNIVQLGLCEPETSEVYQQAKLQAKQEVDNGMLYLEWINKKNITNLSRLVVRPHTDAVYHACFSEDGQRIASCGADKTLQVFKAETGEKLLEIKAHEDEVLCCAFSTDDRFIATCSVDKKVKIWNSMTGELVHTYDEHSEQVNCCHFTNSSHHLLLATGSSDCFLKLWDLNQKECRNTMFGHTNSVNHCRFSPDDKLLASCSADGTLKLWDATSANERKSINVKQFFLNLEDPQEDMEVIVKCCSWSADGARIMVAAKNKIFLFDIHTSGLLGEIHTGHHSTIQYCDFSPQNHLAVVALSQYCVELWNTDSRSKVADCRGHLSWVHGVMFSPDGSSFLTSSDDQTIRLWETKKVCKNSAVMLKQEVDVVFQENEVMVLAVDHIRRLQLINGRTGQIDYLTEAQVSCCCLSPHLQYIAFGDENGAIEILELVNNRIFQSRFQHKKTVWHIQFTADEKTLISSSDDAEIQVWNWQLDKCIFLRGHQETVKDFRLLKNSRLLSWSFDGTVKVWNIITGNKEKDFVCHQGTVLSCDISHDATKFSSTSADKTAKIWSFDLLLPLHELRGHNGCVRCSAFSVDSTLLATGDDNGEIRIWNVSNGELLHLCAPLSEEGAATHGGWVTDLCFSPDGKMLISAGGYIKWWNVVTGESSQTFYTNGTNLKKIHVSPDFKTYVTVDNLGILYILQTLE

[15] = biological target: T4, Probable nicotinate-nucleotide adenylyltransferase; type: functional, Staphylococcus aureus subsp. aureus N315; conditions: read-out: IC50_Mean
[16] = biological target: Intestinal-type alkaline phosphatase (Homo sapiens, UniProt P09923); assay: inhibition of human intestinal alkaline phosphatase – biochemical, dose response (AID 488876); type: functional
Sequence of Intestinal-type alkaline phosphatase (Homo sapiens, UniProt P09923) (P09923 whole entry): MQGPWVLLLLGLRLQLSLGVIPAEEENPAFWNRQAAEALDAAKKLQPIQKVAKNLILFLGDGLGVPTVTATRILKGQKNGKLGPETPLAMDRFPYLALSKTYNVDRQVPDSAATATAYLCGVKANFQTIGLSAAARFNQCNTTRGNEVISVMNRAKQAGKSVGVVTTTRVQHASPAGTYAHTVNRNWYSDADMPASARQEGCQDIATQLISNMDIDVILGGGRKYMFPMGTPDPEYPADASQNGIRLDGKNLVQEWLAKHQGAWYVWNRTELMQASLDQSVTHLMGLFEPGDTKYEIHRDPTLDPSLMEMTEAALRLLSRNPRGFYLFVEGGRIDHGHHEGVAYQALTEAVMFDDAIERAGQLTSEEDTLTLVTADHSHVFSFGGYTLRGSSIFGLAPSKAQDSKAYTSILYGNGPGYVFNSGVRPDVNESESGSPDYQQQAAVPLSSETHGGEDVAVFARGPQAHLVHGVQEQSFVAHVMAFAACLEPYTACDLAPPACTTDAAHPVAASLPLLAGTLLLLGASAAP

[17] = biological target: Intestinal-type alkaline phosphatase (Mus musculus, UniProt P24822); assay: PubChem AID 488785; type: functional
Sequence of Intestinal-type alkaline phosphatase (Mus musculus, UniProt P24822) (P24822 whole entry): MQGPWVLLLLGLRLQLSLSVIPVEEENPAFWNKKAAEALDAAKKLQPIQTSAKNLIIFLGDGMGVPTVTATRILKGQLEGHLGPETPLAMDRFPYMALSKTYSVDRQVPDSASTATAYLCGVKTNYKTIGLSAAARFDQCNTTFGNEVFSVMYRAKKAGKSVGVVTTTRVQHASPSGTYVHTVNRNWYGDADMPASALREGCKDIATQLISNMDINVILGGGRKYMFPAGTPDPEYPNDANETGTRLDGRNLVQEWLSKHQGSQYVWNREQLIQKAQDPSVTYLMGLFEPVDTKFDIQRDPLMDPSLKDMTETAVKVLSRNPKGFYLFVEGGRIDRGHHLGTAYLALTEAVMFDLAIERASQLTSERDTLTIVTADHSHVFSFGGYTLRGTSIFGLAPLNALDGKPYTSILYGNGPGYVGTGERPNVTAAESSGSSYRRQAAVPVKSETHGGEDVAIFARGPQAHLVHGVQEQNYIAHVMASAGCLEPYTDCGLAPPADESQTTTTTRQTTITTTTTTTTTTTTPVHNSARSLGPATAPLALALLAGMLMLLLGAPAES

[18] = biological target: T6, Alkaline phosphatase, tissue-nonspecific isozyme (Homo sapiens, UniProt P05186); assay: TNAP enzyme inhibition by screening hits, dose response, selectivity assay for mouse IAP inhibitor project, biochemical, human TNAP, uHTS hits (AID 488906); type: functional
T6 sequence (P05186 whole entry): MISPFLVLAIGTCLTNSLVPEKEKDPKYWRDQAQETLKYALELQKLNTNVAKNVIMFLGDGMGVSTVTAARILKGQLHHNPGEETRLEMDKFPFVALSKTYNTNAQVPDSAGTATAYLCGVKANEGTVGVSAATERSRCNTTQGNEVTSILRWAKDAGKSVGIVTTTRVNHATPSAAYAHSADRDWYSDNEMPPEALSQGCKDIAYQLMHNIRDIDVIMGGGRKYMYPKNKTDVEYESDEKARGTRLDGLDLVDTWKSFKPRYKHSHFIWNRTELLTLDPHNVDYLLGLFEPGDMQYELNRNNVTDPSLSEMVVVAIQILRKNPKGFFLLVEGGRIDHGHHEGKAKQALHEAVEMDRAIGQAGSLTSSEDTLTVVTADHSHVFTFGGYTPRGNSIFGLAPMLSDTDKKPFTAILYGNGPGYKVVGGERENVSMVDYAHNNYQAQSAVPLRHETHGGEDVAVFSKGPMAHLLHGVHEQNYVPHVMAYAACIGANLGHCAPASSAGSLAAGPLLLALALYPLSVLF

T1 sequence (P35372 whole entry): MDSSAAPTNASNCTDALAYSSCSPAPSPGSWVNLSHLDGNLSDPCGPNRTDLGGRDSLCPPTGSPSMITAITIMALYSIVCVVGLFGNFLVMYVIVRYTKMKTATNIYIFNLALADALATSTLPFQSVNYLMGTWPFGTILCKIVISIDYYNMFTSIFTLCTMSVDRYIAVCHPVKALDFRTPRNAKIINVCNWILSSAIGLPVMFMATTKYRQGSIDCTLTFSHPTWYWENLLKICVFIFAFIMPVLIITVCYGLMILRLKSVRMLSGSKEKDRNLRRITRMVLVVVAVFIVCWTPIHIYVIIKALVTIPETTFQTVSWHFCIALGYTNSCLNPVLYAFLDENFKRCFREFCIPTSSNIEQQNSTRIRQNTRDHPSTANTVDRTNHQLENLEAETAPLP

EC50 (Mu-type opioid receptor [1]): > 32 µM (inactive) | IC50 (Mu-type opioid receptor [2]): > 32 µM (inactive) | IC50 [3]: > 32 µM (inactive) | IC50 [4]: 24 µM (inactive) | EC50 [5]: > 32 µM (inactive) | EC50 [6]: > 32 µM (inactive) | IC50 [7]: > 10 µM (inactive)
SMILES: COc1ccc(S(=O)(=O)NCc2ccc(C(=O)NCCN(C)Cc3ccccc3)cc2)cc1

SMILES: CCCCNC(=O)CSCc1nc(-c2ccc(OCC)cc2)oc1C
IC50 (HEK293 [8]): 38.8 µM (inactive) | IC50 (Jurkat): > 80 µM (inactive) | IC50 (HEK293 [9]): 75.3 µM (inactive)

SMILES: C=CC1=C(C(=O)O)N2C(=O)[C@@H](NC(=O)/C(=N/OCC(=O)O)c3csc(N)n3)[C@H]2SC1
IC50 (Prothrombin): 68.6 µM (active) | IC50 [10]: 0.0764 µM (active) | IC50 [11]: 1.04 µM (active) | EC50 (Streptococcus): < 0.06 µM (active) | EC50 [12]: < 0.06 µM (active) | AC50 (ORF 73): 34.8 µM (active) | IC50 [13]: 0.5 µM (active) | EC50 [14]: 9.93 µM (active) | IC50 [15]: 4.25 µM (active)

IC50 [16]: > 100 µM (inactive) | IC50 [17]: 6.39 µM (active) | IC50 [18]: > 100 µM (inactive)
SMILES: CC(C)(C)c1ccc(O)c(/N=C/c2cc3c(cc2[N+](=O)[O-])OCO3)c1

— ChEMBL document CHEMBL1201862, “PubChem BioAssay data set” (2004)
